Test [1] concerns the target T1, A. borkumensis YdaH (Alcanivorax borkumensis, UniProt Q0VR69).
T1 sequence (Q0VR69 1-492): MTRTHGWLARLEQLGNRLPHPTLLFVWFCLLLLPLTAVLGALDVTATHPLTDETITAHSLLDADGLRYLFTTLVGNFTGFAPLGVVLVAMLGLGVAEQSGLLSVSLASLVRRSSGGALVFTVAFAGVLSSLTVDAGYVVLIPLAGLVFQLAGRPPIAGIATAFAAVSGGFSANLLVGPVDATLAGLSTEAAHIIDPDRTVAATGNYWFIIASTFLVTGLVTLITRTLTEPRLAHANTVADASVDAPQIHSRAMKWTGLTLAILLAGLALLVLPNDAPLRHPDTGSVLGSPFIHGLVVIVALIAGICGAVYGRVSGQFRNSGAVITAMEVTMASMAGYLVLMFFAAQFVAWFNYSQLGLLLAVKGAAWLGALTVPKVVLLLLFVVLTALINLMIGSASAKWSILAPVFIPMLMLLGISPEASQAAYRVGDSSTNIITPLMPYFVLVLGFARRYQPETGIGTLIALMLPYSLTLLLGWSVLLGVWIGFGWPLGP
The test is described as follows: isothermal titration calorimetry. Format: binding. On the technique in general: ITC needs no label: the signal is the heat of the interaction.

Test [2] concerns the target A. borkumensis YdaH transporter (Alcanivorax borkumensis) (UniProt Q0VR69). As to the kind of experiment: SEC. (In general: In gel filtration, larger molecules generally elute earlier.)

Usually Kd stands for the constant that tells how readily two partners part at equilibrium. Read a high Kd as weaker binding. Turning to `Nc1ccc(S(=O)(=O)Nc2ncccn2)cc1` [sulfadiazine], binding in test [1] was put at a Kd of 7040 ± 540 nM.
Regarding `Cc1cc(C)nc(NS(=O)(=O)c2ccc(N)cc2)n1` [sulfamethazine], the affinity in test [1], expressed as Kd, was 410 ± 30 nM.
In test [1], `Nc1ccc(S(=O)(=O)Nc2nccs2)cc1` [sulfathiazole] yielded a Kd of 600 ± 20 nM.
By stoichiometry N is commonly meant a count of units in the complex or per binding partner. For “A. borkumensis YdaH transporter (from UniProt Q0VR69 1-492) (natural protein)”, the stoichiometry N in test [2] was determined as 2.

For the origin of these results see article PMC4410182 (Nature communications, 2015).
